# Earlier results, collected in patent publication US20220154222A1, “NOVEL NUCLEIC ACID MODIFIERS” (THE BROAD INSTITUTE, INC., priority 2019, published 2022).
# Test system: Factor VII gene silencing in hepatocytes
# Details: LNP siRNA systems containing the ionizable cationic lipid; hepatocytes in vivo
row,Compound,"gene silencing potency, rank order of the series"
1,"1,2-dilinoleyloxy-keto-N,N-dimethyl-3-aminopropane [DLinKDMA]",DLinKC2-DMA>DLinKDMA>DLinDMA>>DLinDAP
2,"CCCCC/C=C\C/C=C\CCCCCCCC(=O)OCC(CN(C)C)OC(=O)CCCCCCC/C=C\C/C=C\CCCCC (stereo not shown) [DLinDAP, 1,2-dilineoyl-3-dimethylammonium-propane]",DLinKC2-DMA>DLinKDMA>DLinDMA>>DLinDAP
3,"CCCCC/C=C\C/C=C\CCCCCCCCOCC(CN(C)C)OCCCCCCCC/C=C\C/C=C\CCCCC (stereo not shown) [DLinDMA, 1,2-dilinoleyloxy-3-N,N-dimethylaminopropane]",DLinKC2-DMA>DLinKDMA>DLinDMA>>DLinDAP
4,"CCCCC/C=C\C/C=C\CCCCCCCCC1(CCCCCCCC/C=C\C/C=C\CCCCC)OCC(CCN(C)C)O1 (stereo not shown) [DLinKC2-DMA, 1,2-dilinoleyl-4-(2-dimethylaminoethyl)-[1,3]-dioxolane]",DLinKC2-DMA>DLinKDMA>DLinDMA>>DLinDAP
